How the values were obtained:
Assay in all cases: relative viability (nuclei count vs DMSO), 5 days (fraction); higher = more cells survive
VX-702 + AZD7762 = compound: NC(=O)c1ccc(N(C(N)=O)c2c(F)cccc2F)nc1-c1ccc(F)cc1F [VX-702] + NC(=O)Nc1cc(-c2cccc(F)c2)sc1C(=O)N[C@H]1CCCNC1 [AZD7762] (partner 0.2 µM)
In short: (§1)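 One day after seeding in 1536-well plates, lung cancer cell lines were dosed by pin tool. Dosing was either single-drug or a fixed anchor-drug dose plus five library-drug doses (not always all listed) in √10 steps. After 5 days, nuclei were stained in one fix-and-stain step and counted on 4× images, and relative viability is the nuclei count of treated wells over that of vehicle wells, given as the median of duplicate plates.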

VX-702 + Trametinib = compound: NC(=O)c1ccc(N(C(N)=O)c2c(F)cccc2F)nc1-c1ccc(F)cc1F [VX-702] + CC(=O)Nc1cccc(-n2c(=O)n(C3CC3)c(=O)c3c(Nc4ccc(I)cc4F)n(C)c(=O)c(C)c32)c1 [Trametinib] (partner 0.02 µM)
In short: as §1

Dabrafenib + Decitabine = compound: CC(C)(C)c1nc(-c2cccc(NS(=O)(=O)c3c(F)cccc3F)c2F)c(-c2ccnc(N)n2)s1 [Dabrafenib] + Nc1ncn([C@H]2C[C@H](O)[C@@H](CO)O2)c(=O)n1 [Decitabine] (partner 2 µM)
In short: as §1

Dabrafenib + Pictilisib = compound: CC(C)(C)c1nc(-c2cccc(NS(=O)(=O)c3c(F)cccc3F)c2F)c(-c2ccnc(N)n2)s1 [Dabrafenib] + CS(=O)(=O)N1CCN(Cc2cc3nc(-c4cccc5[nH]ncc45)nc(N4CCOCC4)c3s2)CC1 [Pictilisib] (partner 1 µM)
In short: as §1

Cell Line	relative viability (VX-702 + AZD7762; first compound 0.02 µM)	relative viability (VX-702 + AZD7762; first compound 0.2 µM)	relative viability (VX-702 + AZD7762; first compound 0.6325 µM)	relative viability (VX-702 + AZD7762; first compound 2 µM)	relative viability (VX-702 + Trametinib; first compound 0.02 µM)	relative viability (VX-702 + Trametinib; first compound 0.2 µM)	relative viability (VX-702 + Trametinib; first compound 0.6325 µM)	relative viability (VX-702 + Trametinib; first compound 2 µM)	relative viability (Dabrafenib + Decitabine; first compound 0.009487 µM)	relative viability (Dabrafenib + Decitabine; first compound 0.03 µM)	relative viability (Dabrafenib + Decitabine; first compound 0.09487 µM)	relative viability (Dabrafenib + Decitabine; first compound 0.3 µM)	relative viability (Dabrafenib + Pictilisib; first compound 0.009487 µM)	relative viability (Dabrafenib + Pictilisib; first compound 0.03 µM)	relative viability (Dabrafenib + Pictilisib; first compound 0.09487 µM)	relative viability (Dabrafenib + Pictilisib; first compound 0.3 µM)	relative viability (Dabrafenib + Decitabine; first compound 0.003 µM)	relative viability (Dabrafenib + Pictilisib; first compound 0.003 µM)
LOU-NH91	0.766	0.753	0.721	0.695	0.828	0.763	0.768	0.743	0.868	0.845	0.838	0.861	0.549	0.555	0.548	0.566	–	–
LU99A	0.35	0.372	0.368	0.234	0.563	0.532	0.512	0.5	0.954	0.708	0.85	0.907	0.268	0.342	0.299	0.266	0.965	0.336
LXF-289	1.15	1.14	1.15	1.16	0.718	0.648	0.691	0.703	0.353	0.372	0.397	0.351	0.809	0.671	0.853	0.842	0.353	0.656
NCI-H520	–	–	–	–	0.712	0.799	0.589	0.649	0.515	0.392	0.459	0.342	0.295	0.237	0.265	0.253	0.583	0.344
NCI-H522	0.92	0.833	0.689	0.931	0.736	0.759	0.708	0.74	0.675	0.64	0.755	0.666	–	–	–	–	–	–
